Test results from ChEMBL document CHEMBL4421728, “Bach1 Inhibitors in Combination with Nrf2 Activators and Pharmaceutical Compositions Thereof” (2017).

Tests used:
[1] = biological target: T1, Transcription regulator protein BACH1 (Homo sapiens) (UniProt O14867); assay: Inhibition of Bach1 in normal human lung fibroblasts assessed as induction of HMOX protein expression at 0.078 uM in presence of 0.3 uM Nrf2 activator DMF incubated for 16 to 18 hrs by immunostaining relative to control
T1 sequence (whole entry): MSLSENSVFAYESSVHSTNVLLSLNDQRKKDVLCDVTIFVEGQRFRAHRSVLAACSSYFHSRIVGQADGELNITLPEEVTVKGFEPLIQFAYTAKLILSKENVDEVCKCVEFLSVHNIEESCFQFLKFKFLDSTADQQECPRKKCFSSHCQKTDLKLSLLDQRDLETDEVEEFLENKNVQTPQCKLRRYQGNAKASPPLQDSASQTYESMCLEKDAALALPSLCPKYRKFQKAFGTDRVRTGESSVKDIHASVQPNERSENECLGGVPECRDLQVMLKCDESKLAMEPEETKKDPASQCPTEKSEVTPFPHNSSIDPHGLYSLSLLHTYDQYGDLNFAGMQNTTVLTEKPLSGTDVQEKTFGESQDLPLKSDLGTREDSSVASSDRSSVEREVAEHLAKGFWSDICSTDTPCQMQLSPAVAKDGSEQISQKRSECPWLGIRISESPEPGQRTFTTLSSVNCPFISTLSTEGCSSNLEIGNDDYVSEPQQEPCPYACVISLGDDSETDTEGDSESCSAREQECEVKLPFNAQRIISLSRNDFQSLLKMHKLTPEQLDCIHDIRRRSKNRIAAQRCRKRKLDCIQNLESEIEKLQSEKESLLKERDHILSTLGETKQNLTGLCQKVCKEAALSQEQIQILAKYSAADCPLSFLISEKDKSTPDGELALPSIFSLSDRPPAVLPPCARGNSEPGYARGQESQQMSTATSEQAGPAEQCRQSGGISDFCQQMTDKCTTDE

[2] = biological target: T1, Transcription regulator protein BACH1 (Homo sapiens); assay: Inhibition of Bach1 in normal human lung fibroblasts assessed as induction of HMOX protein expression by measuring HMOX positive cells level at 0.019 uM in presence of 3 uM Nrf2 activator DMF incubated for 16 to 18 hrs by immunostaining relative to control DMSO; parameters: scale not given: the % may be the effect or the level left
[3] = biological target: T1, Transcription regulator protein BACH1 (Homo sapiens); assay: Inhibition of Bach1 in normal human lung fibroblasts assessed as induction of HMOX protein expression by measuring HMOX positive cells level at 0.019 uM in presence of 30 uM Nrf2 activator DMF incubated for 16 to 18 hrs by immunostaining relative to control DMSO; parameters: scale not given: the % may be the effect or the level left
[4] = biological target: T1, Transcription regulator protein BACH1 (Homo sapiens); assay: Inhibition of Bach1 in normal human lung fibroblasts assessed as induction of HMOX protein expression at 0.078 uM incubated for 16 to 18 hrs by immunostaining relative to control
[5] = biological target: T1, Transcription regulator protein BACH1 (Homo sapiens); assay: Inhibition of Bach1 in normal human lung fibroblasts assessed as induction of HMOX protein expression at 0.039 uM in presence of 0.3 uM Nrf2 activator DMF incubated for 16 to 18 hrs by immunostaining relative to control
[6] = biological target: T1, Transcription regulator protein BACH1 (Homo sapiens); assay: Inhibition of Bach1 in normal human lung fibroblasts assessed as induction of HMOX protein expression at 0.156 uM in presence of 1 uM Nrf2 activator DMF incubated for 16 to 18 hrs by immunostaining relative to control
[7] = biological target: T1, Transcription regulator protein BACH1 (Homo sapiens); assay: Inhibition of Bach1 in normal human lung fibroblasts assessed as induction of HMOX protein expression at 0.078 uM in presence of 1 uM Nrf2 activator DMF incubated for 16 to 18 hrs by immunostaining relative to control
[8] = biological target: T1, Transcription regulator protein BACH1 (Homo sapiens); assay: Inhibition of Bach1 in normal human lung fibroblasts assessed as induction of HMOX protein expression by measuring HMOX positive cells level at 0.019 uM in presence of 0.3 uM Nrf2 activator DMF incubated for 16 to 18 hrs by immunostaining relative to control DMSO; parameters: scale not given: the % may be the effect or the level left
[9] = biological target: T1, Transcription regulator protein BACH1 (Homo sapiens); assay: Inhibition of Bach1 in normal human lung fibroblasts assessed as induction of HMOX protein expression at 0.039 uM in presence of 30 uM Nrf2 activator DMF incubated for 16 to 18 hrs by immunostaining relative to control
[10] = biological target: T1, Transcription regulator protein BACH1 (Homo sapiens); assay: Inhibition of Bach1 in normal human lung fibroblasts assessed as induction of HMOX protein expression at 0.039 uM in presence of 3 uM Nrf2 activator DMF incubated for 16 to 18 hrs by immunostaining relative to control
[11] = biological target: T1, Transcription regulator protein BACH1 (Homo sapiens); assay: Inhibition of Bach1 in normal human lung fibroblasts assessed as induction of HMOX protein expression by measuring HMOX positive cells level at 0.156 uM in presence of 1 uM Nrf2 activator DMF incubated for 16 to 18 hrs by immunostaining relative to control DMSO; parameters: scale not given: the % may be the effect or the level left
[12] = biological target: T1, Transcription regulator protein BACH1 (Homo sapiens); assay: Inhibition of Bach1 in normal human lung fibroblasts assessed as induction of HMOX protein expression at 0.019 uM in presence of 0.3 uM Nrf2 activator DMF incubated for 16 to 18 hrs by immunostaining relative to control
[13] = biological target: T1, Transcription regulator protein BACH1 (Homo sapiens); assay: Inhibition of Bach1 in normal human lung fibroblasts assessed as induction of HMOX protein expression by measuring HMOX positive cells level at 0.156 uM incubated for 16 to 18 hrs by immunostaining relative to control DMSO; parameters: scale not given: the % may be the effect or the level left
[14] = biological target: T1, Transcription regulator protein BACH1 (Homo sapiens); assay: Inhibition of Bach1 in normal human lung fibroblasts assessed as induction of HMOX protein expression by measuring HMOX positive cells level at 0.019 uM incubated for 16 to 18 hrs by immunostaining relative to control DMSO; parameters: scale not given: the % may be the effect or the level left
[15] = biological target: T1, Transcription regulator protein BACH1 (Homo sapiens); assay: Inhibition of Bach1 in normal human lung fibroblasts assessed as induction of HMOX protein expression at 0.156 uM in presence of 10 uM Nrf2 activator DMF incubated for 16 to 18 hrs by immunostaining relative to control
[16] = biological target: T1, Transcription regulator protein BACH1 (Homo sapiens); assay: Inhibition of Bach1 in normal human lung fibroblasts assessed as induction of HMOX protein expression by measuring HMOX positive cells level at 0.039 uM in presence of 0.1 uM Nrf2 activator DMF incubated for 16 to 18 hrs by immunostaining relative to control DMSO; parameters: scale not given: the % may be the effect or the level left
[17] = biological target: T1, Transcription regulator protein BACH1 (Homo sapiens); assay: Inhibition of Bach1 in normal human lung fibroblasts assessed as induction of HMOX protein expression by measuring HMOX positive cells level at 0.078 uM incubated for 16 to 18 hrs by immunostaining relative to control DMSO; parameters: scale not given: the % may be the effect or the level left
[18] = biological target: T1, Transcription regulator protein BACH1 (Homo sapiens); assay: Inhibition of Bach1 in normal human lung fibroblasts assessed as induction of HMOX protein expression at 0.156 uM in presence of 0.1 uM Nrf2 activator DMF incubated for 16 to 18 hrs by immunostaining relative to control
[19] = biological target: T1, Transcription regulator protein BACH1 (Homo sapiens); assay: Inhibition of Bach1 in normal human lung fibroblasts assessed as induction of HMOX protein expression by measuring HMOX positive cells level at 0.039 uM in presence of 0.03 uM Nrf2 activator DMF incubated for 16 to 18 hrs by immunostaining relative to control DMSO; parameters: scale not given: the % may be the effect or the level left
[20] = biological target: T1, Transcription regulator protein BACH1 (Homo sapiens); assay: Inhibition of Bach1 in normal human lung fibroblasts assessed as induction of HMOX protein expression at 0.078 uM in presence of 10 uM Nrf2 activator DMF incubated for 16 to 18 hrs by immunostaining relative to control

fold change (FC) [1]	Activity [2]	Activity [3]	fold change (FC) [4]	fold change (FC) [5]	fold change (FC) [6]	fold change (FC) [7]	Activity [8]	fold change (FC) [9]	fold change (FC) [10]	Activity [11]	fold change (FC) [12]	Activity [13]	Activity [14]	fold change (FC) [15]	Activity [16]	Activity [17]	fold change (FC) [18]	Activity [19]	fold change (FC) [20]	Compound
3.21	80.2%	84%	4.34	1.81	6.04	3.83	7.63%	5.52	4	97.7%	1.44	96.3%	19.4%	7.5	6.75%	74%	4.89	11.9%	6.52	Cn1c(Nc2nc3ccc(C(F)(F)F)cc3s2)nc2cc(C(=O)NCCOCCO)ccc21
			1.92																	CNC(=O)c1ccc2c(c1)nc(Nc1nc3ccc(OC(F)(F)F)cc3s1)n2C
1.43	54.6%	84.9%	1.46	1.59	2.87	2.29	8.27%	4.82	2.84	57.7%	1.43	11.3%	2.31%	5.58	2.54%	8.23%	1.73	1.53%	5.06	COCCNC(=O)c1cnc2c(c1)nc(Nc1nc3ccc(OC(F)(F)F)cc3s1)n2C
1.73	51.5%	84.2%	1.59	1.61	4.08	2.53	6.49%	4.9	3.01	66.7%	1.24	28.6%	3.6%	6.55	6.82%	7.12%	2.54	5.74%	6.46	CN(C)C(=O)CNC(=O)c1ccc2c(c1)nc(Nc1nc3ccc(C(F)(F)F)cc3s1)n2C
